Test results taken from patent US7371364B2, “Cyclic peptide and imaging compound compositions and uses for targeted imaging and therapy” (Board of Regents, The University of Texas System, priority 2003, dated 2008).
pIC50: −log10 of the molar value. Residues, ends and D or L forms follow the SMILES beside them.

Tests used:
KS1767 cells = type: cell-based; settings: 1 h
Experimental: A Cell Adhesion Assay was additionally performed. KS1767 cells were seeded in DMEM/F12 culture medium supplemented with 10% fetal bovine serum for 24 hr. Cells (1×10^5) with different concentrations of c(KRGDf; SEQ ID NO. 3) or Cy5.5-c(KRGDf; SEQ ID NO. 3) were added to vitronectin-coated microliter wells under serum-free conditions and incubated at 37° C. for 1 hr. After washing steps, the bound cells were stained with 5% crystal violet, followed by addition of 0.1M HCl to each well. The concentrations of crystal violet were determined by UV/V is absorption at 627 nm. IC50 values were estimated from the dose-activity curves.

αvβ3 integrin = biological target: T1, αvβ3 integrin (Homo sapiens, UniProt P05106+P06756); test: In vitro blockage study of Cy5.5-c(KRGDf) binding to KS1767 cells (fluorescence microscopy); type: cell-based
T1 construct: endogenous in cells; host or cells: KS1767 sarcoma cells
Experimental: KS1767 sarcoma cells were maintained at 37° C. in a humidified atmosphere containing 5% CO2 in Dulbecco's Modified Eagle's Medium/Nutrient Mixture F-12 Ham (DMEM/F12) and 10% FBS (Gibco, Grand Island, N.Y.).
Cells were seeded on cover slips in 24-well plates (Becton Dickinson Labware, Franklin Lakes, N.J.) and incubated in DMEM/F12 culture medium (0.5 ml/well) overnight. Unconjugated c(KRGDf; SEQ ID NO. 3) was added to the culture medium at various concentrations. Cy5.5-c(KRGDf; SEQ ID NO. 3) was added one hour later to each well at a concentration of 6 μM. Cells were washed twice with PBS and incubated in a solution of Sytox Green in 95% ethyl alcohol (1 μM, Molecular Probe, Eugene, Oreg.) for 15 minutes to fix and stain cell nuclei. Cells were washed again with PBS and the cover slips were mounted for microscopic examination using a DMR microscope (Leica Microsystems Inc., Bannockburn, Ill.). The microscope was equipped with a 75W Xenon lamp, 775 nm/845 nm, 560 nm/645 nm, and 480 nm/535 nm (Excitation/emission) filters (Chroma Technology Corp., Brattleboro, Vt.), a Hamamatsu B/W Chilled CCD Camera (Hamamatsu Photonics K.K., Hamamatsu City, Japan), and an Image-Pro Plus 4.5.1 software (Media Cybernetics, Silver Spring, Md.). In the multiple staining images, Cy5.5 was pseudocolored red and Sytox Green was green.

KS1767 tumors [1] = test: In vivo NIR imaging of subcutaneous KS1767 tumors with RGD imaging agent; set-up: species or system mice
Source text: Cy5.5-c(KRGDf; SEQ ID NO. 3) may be used in near infrared (NIR) imaging. Mice inoculated with KS1767 were used for in vivo NIR studies. The mice were four to six week-old athymic nude mice (18-22 g, Harlan Sprague Dawley, Inc. Indianapolis, Ind.) which were housed 5 per cage and fed with sterilized pellet chow (Harlan Sprague Dawley) and sterilized water. The animals were maintained in a pathogen-free mouse colony in the Department of Veterinary Medicine at the University of Texas M.D. Anderson Cancer Center. All experiments were performed in accordance with the guidelines of the Institutional Animal Care and Use Committee.
Tumor cells for use in the animals were harvested near confluence by incubation with 0.05% trypsin-EDTA. Cells were pelleted by centrifugation at 450×g for 5 minutes and resuspended in sterile PBS. […] cells/animal were implanted subcutaneously into the chest wall or hind legs of the mice. Imaging studies were performed when tumors reached 4-6 mm in average diameter.
(§1) In vivo fluorescence imaging was accomplished by illuminating the animal with light from a laser diode (35 mW) expanded to an approximate 8 cm diameter circular area. The fluorescent light re-emitted from the animal was collected by an image intensifier (model FS9910C, ITT Night Vision, Roanoke, Va.) lens-coupled to a CCD camera (model CH350, Photometrics, Tucson, Ariz.). The imaging was designed so that the field of view could be varied from 3×3 cm to over 12×12 cm by varying the image distance of the 50 mm lens used to focus the image onto the photocathode of the intensifier. The lens was fitted with a holographic notch-plus filter (660 nm center wavelength; Kaiser Optical Systems, Inc., Ann Arbor, Mich.) and a bandpass filter (710 nm center wavelength) to reject back-scattered and reflected excitation photons. Image acquisition was accomplished using V++ software (Digital Optics, Auckland, New Zealand) and the obtained images were stored in uncompressed tagged image file format (tiff). Data processing and analysis were accomplished using Matlab software (The MathWorks, Inc., Natick, Mass.). For all imaging sessions, the image acquisition parameters were kept constant, and each image required 800 ms of camera integration.
For dynamic in vivo fluorescence imaging, mice were anesthetized with an i.p. injection of 50 mg/kg pentobarbital, and a catheter was placed in the tail vein for i.v. injection of NIR dyes. A white-light image of the animal was obtained using a low-power lamp as a white light source with holographic and interference filters removed. Fluorescence images were then acquired as a function of time following administration of Cy5.5 (6 nmol per/mouse) or Cy5.5-c(KRGDf; SEQ ID NO. 3) (6 nmol per/mouse). […]

KS1767 tumors [2] = test: Dynamic in vivo NIR imaging, tumor ROI versus normal muscle ROI; set-up: species or system mice
Experimental: For dynamic in vivo fluorescence imaging, mice were anesthetized with an i.p. injection of 50 mg/kg pentobarbital, and a catheter was placed in the tail vein for i.v. injection of NIR dyes. A white-light image of the animal was obtained using a low-power lamp as a white light source with holographic and interference filters removed. Fluorescence images were then acquired as a function of time following administration of Cy5.5 (6 nmol per/mouse) or Cy5.5-c(KRGDf; SEQ ID NO. 3) (6 nmol per/mouse). For blocking studies, c(KRGDf; SEQ ID NO. 3) (600 nmol/mouse) was injected intravenously at 1 hr and 24 hr prior to the injection of Cy5.5-c(KRGDf; SEQ ID NO. 3). The acquisition time was 800 ms. Images were obtained every 6 seconds (s) for up to 20 minutes (min) following injection of each imaging agent. Each mouse was imaged again 24 hr after contrast injection.
Two regions of interest (ROI) were selected for quantitative analyses. One ROI was located entirely within the circumference of the tumor, and the other, of approximate equivalent size, defined a symmetric region of normal tissue located opposite the tumor site. (See FIG. 32A.) Utilizing Matlab software, the mean of the fluorescence intensity within each ROI was computed for every fluorescence image acquired. Data were acquired from the tumor ROI. (See FIG. 32B.) Data were acquired from normal muscle ROI. […] The symbols denote experimental measurements while the solid line denotes the corresponding least-squares fit. Animals were injected with Cy5.5-c(KRGDf; SEQ ID NO. 3) alone (6 nmol) (□), or Cy5.5-cc(KRGDf; SEQ ID NO. 3) 1 hr (∘) and 24 hr (⋄) after the injection of unconjugated c(KRGDf; SEQ ID NO. 3) peptide (600 nmol).

[3] = system: integrin-positive M21 melanoma; test: In vivo NIR imaging of human melanoma xenograft, integrin-positive; set-up: species or system mice; settings: for Visualization of tumor in NIR image: M21 melanoma, 24 hr after i.v. injection, 3 nmol/mouse
Source text: as §1

[4] = system: integrin-negative M21-L melanoma; test: In vivo NIR imaging of human melanoma xenograft, integrin-negative; set-up: species or system mice
Source text: as §1

[5] = Stability assay in serum-containing culture medium (HPLC); type: in vitro ADME; settings: 25° C.; for Degradation in culture medium: 3 hours
Experimental: Each test peptide was incubated in a serum-containing culture medium (Dulbecco's Modified Eagle's Medium/Nutrient Mixture F-12 Ham and 10% FBS) (1 mg/ml) at 25° C. At various time intervals, aliquots of peptide solution (50 μL) were withdrawn and subjected to HPLC analysis. The percentage of remaining intact peptide was recorded as a function of time.

[6] = biological target: αvβ3 integrin (on KS1767 cells) (UniProt P06756); test: cell-based or functional assay
Sequence of αvβ3 integrin (on KS1767 cells) (P06756 31-1048, chain 1 of 2): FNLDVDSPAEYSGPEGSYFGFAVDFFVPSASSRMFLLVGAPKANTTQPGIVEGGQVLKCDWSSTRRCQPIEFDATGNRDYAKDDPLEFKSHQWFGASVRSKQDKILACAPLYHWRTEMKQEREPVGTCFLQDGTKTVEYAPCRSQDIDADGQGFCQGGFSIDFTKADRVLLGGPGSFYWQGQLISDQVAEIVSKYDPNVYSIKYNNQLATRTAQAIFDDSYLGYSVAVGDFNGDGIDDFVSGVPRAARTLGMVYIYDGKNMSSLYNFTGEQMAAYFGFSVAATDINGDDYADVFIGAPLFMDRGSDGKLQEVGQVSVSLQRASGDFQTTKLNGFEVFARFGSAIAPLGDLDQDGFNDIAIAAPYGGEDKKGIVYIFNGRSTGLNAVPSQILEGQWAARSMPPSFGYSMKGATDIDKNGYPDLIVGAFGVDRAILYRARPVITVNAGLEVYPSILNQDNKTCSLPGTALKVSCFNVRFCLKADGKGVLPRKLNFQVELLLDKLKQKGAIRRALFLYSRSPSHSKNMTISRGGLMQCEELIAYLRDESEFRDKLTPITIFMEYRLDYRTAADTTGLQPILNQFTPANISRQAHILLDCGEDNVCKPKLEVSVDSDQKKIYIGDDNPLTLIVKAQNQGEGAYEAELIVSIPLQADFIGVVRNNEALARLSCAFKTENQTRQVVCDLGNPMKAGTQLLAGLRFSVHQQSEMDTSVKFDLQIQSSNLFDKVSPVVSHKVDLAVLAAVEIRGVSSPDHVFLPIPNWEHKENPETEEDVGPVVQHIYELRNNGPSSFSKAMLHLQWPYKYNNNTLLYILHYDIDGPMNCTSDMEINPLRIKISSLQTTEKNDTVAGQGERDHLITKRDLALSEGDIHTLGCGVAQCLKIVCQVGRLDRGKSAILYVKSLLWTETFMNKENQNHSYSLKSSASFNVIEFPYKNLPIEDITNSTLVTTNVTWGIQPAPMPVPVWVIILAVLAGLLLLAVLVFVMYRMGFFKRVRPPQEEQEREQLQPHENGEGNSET
Sequence of αvβ3 integrin (on KS1767 cells) (P05106 27-788, chain 2 of 2, further chain): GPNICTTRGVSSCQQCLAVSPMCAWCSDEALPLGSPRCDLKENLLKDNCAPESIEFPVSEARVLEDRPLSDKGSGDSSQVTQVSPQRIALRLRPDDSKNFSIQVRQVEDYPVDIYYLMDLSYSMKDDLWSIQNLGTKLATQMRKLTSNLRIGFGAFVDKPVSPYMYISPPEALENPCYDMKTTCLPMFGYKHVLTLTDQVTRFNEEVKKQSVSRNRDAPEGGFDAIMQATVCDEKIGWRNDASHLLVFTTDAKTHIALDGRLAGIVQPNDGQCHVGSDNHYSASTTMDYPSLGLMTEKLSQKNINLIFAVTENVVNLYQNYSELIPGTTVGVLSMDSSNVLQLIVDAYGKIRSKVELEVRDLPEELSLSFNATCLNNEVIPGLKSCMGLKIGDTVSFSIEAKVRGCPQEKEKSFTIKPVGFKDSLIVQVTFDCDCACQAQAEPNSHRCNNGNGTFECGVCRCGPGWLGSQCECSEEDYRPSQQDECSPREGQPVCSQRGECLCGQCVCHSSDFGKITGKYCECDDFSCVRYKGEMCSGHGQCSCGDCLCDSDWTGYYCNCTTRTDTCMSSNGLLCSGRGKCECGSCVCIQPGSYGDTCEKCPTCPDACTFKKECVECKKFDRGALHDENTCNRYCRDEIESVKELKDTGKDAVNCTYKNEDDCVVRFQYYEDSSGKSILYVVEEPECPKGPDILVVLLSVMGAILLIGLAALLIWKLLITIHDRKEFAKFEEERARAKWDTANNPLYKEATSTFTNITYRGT

T1 sequence (P06756 31-889 limits assumed): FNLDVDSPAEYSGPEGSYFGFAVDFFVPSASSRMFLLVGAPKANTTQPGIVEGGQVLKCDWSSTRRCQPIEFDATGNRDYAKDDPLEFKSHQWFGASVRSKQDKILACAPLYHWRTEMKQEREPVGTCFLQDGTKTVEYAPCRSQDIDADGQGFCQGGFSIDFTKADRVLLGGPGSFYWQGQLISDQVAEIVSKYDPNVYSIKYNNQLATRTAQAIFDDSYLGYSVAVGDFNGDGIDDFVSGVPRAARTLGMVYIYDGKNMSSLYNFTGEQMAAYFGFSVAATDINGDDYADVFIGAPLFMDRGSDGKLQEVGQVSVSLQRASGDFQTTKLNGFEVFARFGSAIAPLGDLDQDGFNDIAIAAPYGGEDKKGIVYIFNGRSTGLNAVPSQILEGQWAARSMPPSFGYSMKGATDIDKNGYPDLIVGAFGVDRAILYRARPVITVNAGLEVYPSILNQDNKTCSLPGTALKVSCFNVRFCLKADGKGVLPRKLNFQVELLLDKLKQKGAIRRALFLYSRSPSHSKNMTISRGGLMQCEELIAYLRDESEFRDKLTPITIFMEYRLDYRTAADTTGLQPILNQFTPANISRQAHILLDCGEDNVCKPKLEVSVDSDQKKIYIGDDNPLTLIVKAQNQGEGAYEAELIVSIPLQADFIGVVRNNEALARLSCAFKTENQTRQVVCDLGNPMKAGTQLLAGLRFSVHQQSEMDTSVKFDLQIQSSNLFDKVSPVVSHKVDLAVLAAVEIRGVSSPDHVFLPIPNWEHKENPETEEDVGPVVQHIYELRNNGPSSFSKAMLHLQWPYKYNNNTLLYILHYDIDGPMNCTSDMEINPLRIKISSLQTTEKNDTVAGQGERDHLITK
T1 sequence (P06756 891-1048 partner limits assumed): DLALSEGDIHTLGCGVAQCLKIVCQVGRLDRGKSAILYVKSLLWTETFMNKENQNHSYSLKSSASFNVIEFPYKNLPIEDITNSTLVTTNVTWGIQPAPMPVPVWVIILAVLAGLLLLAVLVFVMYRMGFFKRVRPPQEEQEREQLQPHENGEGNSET
T1 sequence (P05106 27-788): as the sequence (P05106 27-788, chain 2 of 2, further chain) above

CC[N+]1=C(C=CC=CC=C2N(CCCCCC(=O)NCCCC[C@@H]3NC(=O)[C@@H](Cc4ccccc4)NC(=O)[C@H](CC(=O)O)NC(=O)CNC(=O)[C@H](CCCNC(=N)N)NC3=O)c3ccc4c(S(=O)(=O)O)cc(S(=O)(=O)O)cc4c3C2(C)C)C(C)(C)c2c1ccc1c(S(=O)(=O)[O-])cc(S(=O)(=O)O)cc21 [Cy5.5-c(KRGDf; SEQ ID NO. 3)]
pIC50 (KS1767 cells): ~5.95
In vitro binding to αvβ3 (αvβ3 integrin; KS1767 cells, 6 μM imaging agent): demonstrated
Localization in excised tumor and adjacent muscle tissue (fluorescence microscopy) (KS1767 tumors [1]; ex vivo, KS1767 tumor excised 48 hr after i.v. injection): localized to the tumor, but not to the muscle cells
Tumor targeting / uptake in NIR image (KS1767 tumors [1]; subcutaneous KS1767 tumors, i.v. 6 nmol/mouse, image 24 hours after injection): clearly showed targeting
Rate of uptake in KS1767 tumors compared with muscle (KS1767 tumors [2]; 6 nmol/mouse i.v., dynamic imaging up to 20 min): faster
Rate of uptake in the tumor after preinjection of c(KRGDf) (KS1767 tumors [2]; c(KRGDf) 600 nmol, interval between injections 24 hr): partially recovered

CC1(C)C(/C=C/C2=C(Oc3ccc(S(=O)(=O)O)cc3)C(=C/C=C3/N(CCCCS(=O)(=O)O)c4ccc(S(=O)(=O)[O-])cc4C3(C)C)/CCC2)=[N+](CCCCCC(=O)O)c2ccc(S(=O)(=O)O)cc21 [IRDye800, reference compound]
Visualization of tumor in NIR image [3]: did not have detectable signal

CC1(C)C(=CC=C2CCCC(C=CC3=[N+](CCCCS(=O)(=O)O)c4ccc(S(=O)(=O)[O-])cc4C3(C)C)=C2Oc2ccc(S(=O)(=O)O)cc2)N(CCCCCC(=O)NCCCC[C@@H]2NC(=O)[C@@H](Cc3ccccc3)NC(=O)[C@H](CC(=O)O)NC(=O)CNC(=O)[C@H](CCCNC(=N)N)NC2=O)c2ccc(S(=O)(=O)O)cc21 [IRDye800-c(KRGDf; SEQ ID NO. 3)]
pIC50 (KS1767 cells): ~5.59
Visualization of tumor in NIR image [3]: clearly visualized
Tumor-to-background ratio ([3]; mice with M21 tumors, from fluorescence intensity in region-of-interest): 1.7
Visualization of tumor in NIR image ([4]; M21-L melanoma, 24 hr after i.v. injection, 3 nmol/mouse): not
Tumor-to-background ratio ([4]; mice with M21-L tumors, from fluorescence intensity in region-of-interest): 1.1

CC(C)C[C@@H]1NC(=O)[C@H]([C@@H](C)O)NC(=O)[C@H](Cc2ccccc2)NC(=O)CNC(=O)[C@H](Cc2c[nH]c3ccccc23)NC(=O)[C@H](Cc2c[nH]cn2)NC(=O)[C@H]([C@@H](C)O)NC(=O)[C@H]([C@@H](C)O)NC(=O)[C@H](C)NC(=O)CCNC1=O [c(ATTHWGFTLβA; SEQ ID NO. 2)] (HELM PEPTIDE1{A.T.T.H.W.G.F.T.L.[bAla]}$PEPTIDE1,PEPTIDE1,1:R1-10:R2$$$V2.0; bridges inferred)
Degradation in culture medium [5]: no apparent degradation
Degradation over the course of the study ([5]; 5 days): no degradation

CC(C)C[C@@H]1NC(=O)[C@H]([C@@H](C)O)NC(=O)[C@H](Cc2ccccc2)NC(=O)CNC(=O)[C@H](Cc2c[nH]c3ccccc23)NC(=O)[C@H](Cc2c[nH]cn2)NC(=O)[C@H]([C@@H](C)O)NC(=O)[C@H]([C@@H](C)O)NC(=O)[C@@H](N)CSSC[C@@H](C(N)=O)NC1=O [c(CTTHWGFTLC; SEQ ID NO. 1), reference compound] (HELM PEPTIDE1{C.T.T.H.W.G.F.T.L.C.[am]}$PEPTIDE1,PEPTIDE1,1:R3-10:R3$$$V2.0)
Degradation in culture medium [5]: degrades completely
metabolised at 3 h, 1 mg/ml ([5]; serum-containing culture medium (DMEM/F-12 Ham with 10% FBS), after 3 hours, read-out: Peptide degraded): > 90%

N=C(N)NCCC[C@@H]1NC(=O)[C@H](CCCCN)NC(=O)[C@@H](Cc2ccccc2)NC(=O)[C@H](CC(=O)O)NC(=O)CNC1=O [c(KRGDf; SEQ ID NO. 3), cyclo(Lys-Arg-Gly-Asp-phe), reference compound]
pIC50 (KS1767 cells): ~5.61
Blockage of Cy5.5-c(KRGDf) binding to KS1767 cells (αvβ3 integrin; unconjugated peptide added one hour before 6 μM Cy5.5-c(KRGDf)): dose-dependent blockage
Effect of pretreatment on uptake of fluorophores in KS1767 tumors (KS1767 tumors [1]; 100-fold c(KRGDf) injected 1 hour before Cy5.5-c(KRGDf)): blocked the uptake
Effect of preinjection on uptake of Cy5.5-c(KRGDf) in the tumor (KS1767 tumors [2]; c(KRGDf) 600 nmol, interval between injections 1 hr): blocked the uptake

Cy5.5-c(KRGDf; SEQ ID NO. 3) (peptide)
IC50 of inhibition of adhesion of KS1767 cells to vitronectin-coated microplate wells [6]: 1.11 µM

cyclo(Lys-Arg-Gly-Asp-phe), c(KRGDf; SEQ ID NO. 3) (peptide)
IC50 of inhibition of adhesion of KS1767 cells to vitronectin-coated microplate wells [6]: 2.47 µM
